Source: patent publication US7807624B2, “Methods and compositions for promoting attachment of cells of endothelial cell lineage to medical devices” (Affinergy, Inc., priority 2006, dated 2010)
Where a SMILES comes first, the peptide text is derived from it.

Columns and labels:
[1] = Phage display selection and ELISA-type peptide binding to polyurethane
Description: (§1) For example, a variety of different phage display libraries were screened for peptides that bind to a selected target substrate (e.g., a substrate selected to find a binding domain useful in the present invention). The substrate was either bound to or placed in (depending on the selected substrate) the wells of a 96 well microtiter plate. Nonspecific binding sites on the well surface of the polystyrene microtiter plate were blocked with a buffer containing 1% bovine serum albumin after overnight incubation at 4° C. The wells were then washed 5 times with a buffer containing phosphate buffered saline with Tween™ 20 (“PBS-T”). […] To detect phage that specifically bind to the selected substrate, enzyme-linked immunosorbent (ELISA-type) assays were performed using an anti-phage antibody conjugated to a detector molecule, followed by the detection and quantitation of the amount of detector molecule bound in the assay.
(§2) Relative binding strengths of the peptides were determined by testing serial dilutions of the peptide for binding to the selected substrate (as compared to a substrate used as a negative control; i.e. a substrate other than the selected substrate). Plotting the absorbance observed across the concentration range for each peptide sequence yielded a binding curve and rough dissociation constant (“KD”) of the peptides to its target substrate. […]

[2] = Phage display selection and ELISA-type peptide binding to teflon
Description: as §1, §2

[3] = Phage display selection and ELISA-type peptide binding to polystyrene
Description: For example, a variety of different phage display libraries were screened for peptides that bind to a selected target substrate (e.g., a substrate selected to find a binding domain useful in the present invention). The substrate was either bound to or placed in (depending on the selected substrate) the wells of a 96 well microtiter plate. Nonspecific binding sites on the well surface of the polystyrene microtiter plate were blocked with a buffer containing 1% bovine serum albumin after overnight incubation at 4° C. The wells were then washed 5 times with a buffer containing phosphate buffered saline with Tween™ 20 (“PBS-T”). Each library was diluted in PBS-T and added at a concentration of 10^10 pfu/ml in a total volume of 100 μl. After 3 hour of incubation at room temperature with shaking at 50 rpm, unbound phage were removed by multiple washes with PBS-T. Bound phage were recovered by denaturation with 0.1 M glycine buffer, pH2.2. The eluted phage were neutralized with phosphate buffer, and then added to E. coli cells in growth media. The cell and phage-containing media was cultured by incubation overnight at 37° C. in a shaker at 200 rpm. Phage-containing supernatant was harvested from the culture after centrifuging the culture. […] To detect phage that specifically bind to the selected substrate, enzyme-linked immunosorbent (ELISA-type) assays were performed using an anti-phage antibody conjugated to a detector molecule, followed by the detection and quantitation of the amount of detector molecule bound in the assay.
as §2

[4] = Peptide binding to titanium beads (phage selection, ELISA-type dilution series)
Procedure: As a specific illustrative example, titanium (in percent: Ti6Al4V) beads of approximately 5/32 of an inch diameter were washed with 70% ethanol, 40% nitric acid, distilled water, 70% ethanol, and acetone to remove any surface contaminants. One titanium bead was placed per well of 96-well polypropylene plate. Nonspecific binding sites on the titanium and the surface of the polypropylene were blocked with 1% bovine serum albumin (BSA) in PBS. The plate was incubated for 1 hour at room temperature with shaking at 50 rpm. The wells were then washed 5 times with 300 μl of PBS. Each library was diluted in PBS+1% BSA and was added at a concentration of 10^10 pfu/ml in a total volume of 250 μl. […]
as §2
As a specific example, titanium beads were blocked with 1% BSA in PBS for 30 minutes at room temperature. […] Beads were washed two times with PBS-T. PNPP (p-nitrophenyl phosphate) was used to develop the assay, and the absorbance was recorded at 405 nm. […]

[5] = test system: cells of endothelial cell lineage
Procedure: In this illustrative example, cells of endothelial cell lineage used as target cells for the selection and screening process were human adipose-derived stem cells (“ADAS cells”). […] Fibroblasts (16 Lu fibroblast cell line) were used as non-target cells in the selection and screening process.
These peptides were tested in a variety of assay formats for binding specificity against a panel of cells and cell lines to compare binding to cells of endothelial cell lineage (e.g., human umbilical vein endothelial cells, human coronary artery endothelial cells, porcine coronary artery endothelial cells, and human endothelial progenitor cells) versus binding to cells of an origin other than endothelial cell lineage (e.g., human artery smooth muscle cells, porcine artery smooth muscle cells, platelets, and other mammalian cell lines).

SCYVNGHNSVWWVFWGVS (SCYVNGHNSVWVVVFWGVS) [SEQ ID NO:23]
binding specificity for polyurethane [1]: specifically binds to polyurethane

CWSRFRLFMLFCMFYLVS [SEQ ID NO:55]
binding specificity for teflon [2]: specifically bind to teflon

FFGFDVYDMSNAL [SEQ ID NO:19]
binding specificity for polystyrene [3]: substantially retain binding specificity for polystyrene

FSYSVSYAHPEGL [SEQ ID NO:21]
binding specificity for polystyrene [3]: substantially retain binding specificity for polystyrene

CIKYPFLYCCLLSLFLFS [SEQ ID NO:56]
binding specificity for teflon [2]: specifically bind to teflon

SDKSHKHWYSYESKYGGS [SEQ ID NO:74]
binding specificity for titanium [4]: substantially retained binding specificity
reduction in binding ([4]; as compared to SEQ ID NO:73 (two cysteines substituted by serine)): 10 fold

CC(C)C[C@H](NC(=O)[C@H](C)NC(=O)[C@H](C)NC(=O)[C@H](CO)NC(=O)[C@@H]1CCCN1C(=O)[C@H](CCCNC(=N)N)NC(=O)[C@H](CC(C)C)NC(=O)[C@H](CC(C)C)NC(=O)[C@H](CO)NC(=O)[C@@H](NC(=O)[C@H](Cc1c[nH]cn1)NC(=O)[C@H](CCC(N)=O)NC(=O)[C@H](CS)NC(=O)[C@H](CO)NC(=O)[C@H](CO)NC(=O)[C@@H](N)CO)C(C)C)C(=O)NCC(=O)N1CCC[C@H]1C(=O)N[C@@H](CC(=O)O)C(=O)N[C@@H](CC(N)=O)C(=O)N[C@@H](CS)C(=O)N[C@@H](CS)C(=O)N[C@@H](CO)C(=O)N[C@@H](CCCNC(=N)N)C(=O)NCC(=O)N[C@@H](CO)C(=O)N[C@@H](CO)C(=O)NCC(=O)N[C@@H](CCCCN)C(=O)O [SEQ ID NO:95] (H-SSSCQHVSLLRPSAALGPDNCCSRGSSGK-OH; N-terminus and C-terminus assumed)
EC50 [5]: < 10 µM

FFPSSWYSHLGVL [SEQ ID NO:18]
binding specificity for polystyrene [3]: substantially retain binding specificity for polystyrene

CC(C)C[C@H](NC(=O)[C@H](C)NC(=O)[C@H](C)NC(=O)[C@H](CO)NC(=O)[C@@H]1CCCN1C(=O)[C@H](CCCNC(=N)N)NC(=O)[C@H](CC(C)C)NC(=O)[C@H](CC(C)C)NC(=O)[C@H](CO)NC(=O)[C@@H](NC(=O)[C@H](Cc1c[nH]cn1)NC(=O)[C@H](CCC(N)=O)NC(=O)[C@H](CS)NC(=O)[C@H](CO)NC(=O)[C@H](CO)NC(=O)[C@@H](N)CO)C(C)C)C(=O)NCC(=O)N1CCC[C@H]1C(=O)N[C@@H](CC(=O)O)C(=O)N[C@@H](CC(N)=O)C(=O)N[C@@H](CS)C(=O)N[C@@H](CO)C(=O)N[C@@H](CCCNC(=N)N)C(=O)NCC(=O)N[C@@H](CO)C(=O)N[C@@H](CO)C(=O)NCC(=O)N[C@@H](CCCCN)C(=O)O [SEQ ID NO:96] (H-SSSCQHVSLLRPSAALGPDNCSRGSSGK-OH; N-terminus and C-terminus assumed)
EC50 [5]: < 10 µM
